According to patent US4053632A, “Compounds of spiro-amine type and methods for their use” (priority 1971, dated 1977):
Converted amounts (≈) assume the structure as drawn.

Columns and labels:
[1] = tested on: conditioned avoidance response (CAR); settings: general knowledge, in words; cited from earlier work
in vivo = settings: mouse
Procedure: The compounds were given by intravenous route to 3 mice. […] Seizures, gait, sedation and grip strength were recorded.
Acute toxicity was tested by the intraveneous, intraperitoneal and oral routes of administration. […] During the oral route a behavioral scoring system was used in order to relate changes in behavior to dose. The LD50 values were determined graphically from log dose -- response curves based on four doses with three animals per dose. Peripheral parasympatholytic effect was tested in mice by observing the mydriatic effect after intravenous injection (9) (four doses with three animals per dose). PD200 refers to the dose which increases the pupil width by 200%.

catalepsy [2] = test: Catalepsy; assay type: in vivo; settings: rat, in vivo
Excerpt: (§1) Using the method and intensity scaring system described by Costall and Naylar, (7), the cataleptic properties of SIR 109 and chloropromazine were studied. Briefly, an animal was classed as cataleptic if it remained in an abnormal position for 15 seconds. Additionally, the duration the animal held this position was converted to a numerical scare as an indication of the intensity of the catalepsy.

Catalepsy [3] = assay type: in vivo; settings: rat, in vivo, ip
Excerpt: as §1

[4] = tested on: NA turnover / noradrenaline receptor; test: Estimation of NA receptor blockade (NA turnover) in the rat brain; assay type: in vivo; settings: Rattus norvegicus, ip, read-out: first significant dose, effect on brain noradrenaline level
Excerpt: (§2) The estimation of catecholamine (CA) turnover was made by using the tyrosine hydroxylase inhibitor α-methyl tyrosine methyl ester (H 44/68) (4). This technique is based on the assumption that dopamine (DA) or noradrenaline (NA) receptor blockade will mediate an increase in CA turnover and result in lowered CA levels in the brain compared to H 44/68 alone. Since DA receptor blockade is assumed to be a biochemical correlate to antipsychotic action, this test gives a biochemical evidence for an antipsychotic effect. In this particular test the DA and NA levels in the brain were measured biochemically (5,6).

[5] = tested on: DA turnover / dopamine receptor; test: Estimation of DA receptor blockade (DA turnover) in the rat brain; assay type: in vivo
Excerpt: as §2

mice = test: Behavioral observation (ptosis, catatonia) in mice; assay type: in vivo, mouse
aggressive behavior = test: Aggressive behavior (anti-aggressive test) in isolated mice; assay type: in vivo, mouse
Procedure: Anxiolytic effect was defined as a block of aggressive behavior in mice. Male mice kept isolated for 3 weeks or longer develop an aggressive behaviour when caged together. The method used followed that reported by Valzelli et al. (8) with the exception that two mice were tested together. The aggressiveness was scored during a five minute test according to the following scale:
0: the animals show no interest in each other except occasional nosing,
[…]: frequent vigorous nosing and tail twitching. The animals assume a fighting position and occasionally attack the partner -- no more than 3-4 times in the period of five minutes,
50: tail twitching, powerful attacks -- no more than 10 times during the test period,
75: the animals pursue their partners, attacking and biting for most of the time,
100: attacks over the entire period.
Controls administered with the solvent were tested. […] The animals were used for several experiments but with intervals of at least one week. Groups of 10 mice were used, and they were tested one hour after the administration of the drug. The animals were used as their own controls.

[6] = tested on: methamphetamine induced hyperactivity; test: Antagonism of methamphetamine-induced hyperactivity; assay type: in vivo, mouse; settings: mice, FIG. 1, in words
Procedure: Sedatives (e.g. barbiturates, benzodiazepines and propandiols) on the other hand generally potentiate the induced hyperactivity. The interaction with amphetamines consequently gives an indication of the mechanism of a drug. Male mice were pretreated with the test drug 30 minutes before the administration of methamphetamine 3 mg/kg i.p. After 20 minutes the spontaneous motor activity was measured for 20 minutes by an Animex activity meter, which can distinguish between slight and considerable motion. The animals were tested in groups of three and used only once. Control groups treated with saline alone or the test drug and saline according to the testing schedule were run simultaneously.

[7] = tested on: conditioned avoidance response (CAR); test: Conditioned avoidance response in rats; assay type: in vivo, rat; settings: Rattus norvegicus, ip, 1 h, i.p.; read-out: CAR ED50 (Table 4)
Procedure: For this reason the conditioned avoidance test has been developed for initial screening of neuroleptics. Rats were trained to avoid electrical shock by jumping from one compartment to the other in a shuttle box. The conditioned stimulus consists of an auditory signal which after eight seconds was followed by the electrical shock. The rates were trained to a criterion of making eight out of ten responses correctly. The drugs were injected one hour before the test. The avoidance responses are expressed in percentage of those before administration. CD50 is the dose which reduces the avoidance response to 50% of control values.

Solubility in water = assay type: physicochemical; settings: hydrochloride

Row | Compound | inhibition of learned responses [1] | LD50 at 24 h (in vivo; ip) | LD50 at 24 h (in vivo; iv) | LD50 at 24 h (in vivo; po) | Catalepsy intensity score (catalepsy [2]) | ED50 (Catalepsy [3]) | minimal effective dose [4] | minimal effective dose ([5]; Rattus norvegicus, ip, read-out: first significant dose, effect on brain dopamine level) | effect on DA turnover ([5]; in words) | threshold dose for ptosis (mice; mice) | dose from which catatonic state was prominent (mice; orally, mouse) | ED50 (aggressive behavior; Mus musculus, ip, 1 h, read-out: Anti-aggresive test ED50) | effect on aggressive behavior (aggressive behavior; mice, in words) | block of methamphetamine induced hyperactivity [6] | ED50 [7] | solubility (Solubility in water)
1 | CN(C)CCCN1c2ccccc2Sc2ccc(Cl)cc21 [Chlorpromazine, reference compound] | inhibit many different types of learned responses | 92 mg/kg | 26 mg/kg | 190 mg/kg | 1.0 | 7 mg/kg | 5 mg/kg | 5 mg/kg | effects DA turnover at about the same dose | 4 mg/kg | ≥ 31 mg/kg | 2 mg/kg | effective first at sedative doses | blocked methamphetamine induced hyperactivity in mice | 5 mg/kg | 
2 | CNC1C=CC2(CC1)c1ccccc1C=Cc1ccccc12 (stereo not shown) [Example 12] |  |  |  |  |  |  |  |  |  |  |  |  |  |  |  | ~10000 µg/mL (≈ 34.8 mM)
